Experimental data as given in PubChem BioAssay (NCI).
Where “and” joins values, the source holds several entries; their conditions need not be identical. Equal values may be shown once.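 Briefly, cells in 96-well plates were exposed to five compound concentrations for 48 h, and endpoints were estimated by linear interpolation. Here, GI50 denotes the concentration required for 50% inhibition of growth. At the TGI there is no net growth.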

Assays:
Assay in all cases: NCI anticancer screen, dose series, 48 h
[1] = tested on: HS 578T breast
[2] = tested on: SK-MEL-2 melanoma
[3] = tested on: RPMI-8226 leukemia
[4] = tested on: SF-295 CNS
[5] = tested on: MDA-MB-435
[6] = tested on: NCI/ADR-RES ovarian
[7] = tested on: SF-539 CNS
[8] = tested on: HT29 colon
[9] = tested on: 786-0 renal
[10] = tested on: DU-145 prostate

| Compound | GI50 [1] | TGI [1] | GI50 [2] | TGI [2] | GI50 [3] | TGI [3] | GI50 [4] | TGI [4] | GI50 [5] | TGI [5] | GI50 [6] | TGI [6] | GI50 [7] | TGI [7] | GI50 [8] | TGI [8] | GI50 [9] | TGI [9] | GI50 [10] | TGI [10] |
| --- | --- | --- | --- | --- | --- | --- | --- | --- | --- | --- | --- | --- | --- | --- | --- | --- | --- | --- | --- | --- |
| C[C@@H]1CN(C(=O)c2ccc(NC(=O)c3cc(O[C@H](C)c4c(Cl)ccc(F)c4Cl)c(N)nn3)cc2)C[C@H](C)N1 | 3.02 µM | 21.9 µM | 5.57 µM | 19.6 µM | 2.37 µM | 8.17 µM | 1.11 µM | 10.5 µM | 1.88 µM | 16.8 µM | 11.7 µM | 31.1 µM | 2.21 µM | 5.07 µM | 1.19 µM | 3.46 µM | 4.63 µM | 15.7 µM | 6.7 µM | 19.2 µM |
| CCC(C)(C)C(=O)O[C@H]1C[C@@H](C)C=C2C=C[C@H](C)[C@H](CC[C@@H]3C[C@@H](O)CC(=O)O3)[C@H]21 | 2.7 µM | 16.4 µM | 0.765 µM | 5.92 µM and 1.81 µM | 3.79 µM | 28.5 µM and > 30 µM | 0.434 µM | 8.03 µM and 2.61 µM | 8.03 µM | 21 µM | 0.614 µM | 12.1 µM | 11.3 µM | 24.8 µM and > 30 µM |  | 20.2 µM and 21.3 µM | 3.13 µM | 11.2 µM and > 30 µM | 12.1 µM | 24.6 µM |
